# In patent US20240263128A1, “METHOD OF PRODUCING BIOLOGICAL MATERIAL” (NIPPON TELEGRAPH AND TELEPHONE CORPORATION, priority 2021, published 2024):
# Assays:
# Cyanidiosyzon merolae [1] = assay: Fat and oil accumulation in unicellular red algae (BODIPY staining, fluorescence microscopy); format: cell-based; conditions: 2 mmol/L dimethyl 2-oxoglutarate, MA2 culture medium, suspension culture under light, 24 hours after addition, compared with culture without promoter; FIG. 2 vs FIG. 4
# Experimental: Unicellular red algae were cultured in suspension under a light condition and a promoter was added thereto. An MA2 culture medium was used as a culture medium. Cyanidiosyzon merolae were used as unicellular red algae. Dimethyl 2-oxoglutarate was used as a promoter. The promoter was added so that the final concentration of dimethyl 2-oxoglutarate would be 2 mmol/L. After the addition of the promoter, the cultivation was continued for 24 hours more. Thereafter, a bright field image was obtained for the cultured unicellular red algae using a microscope. In addition, the fat and oil of the unicellular red algae were stained with commercially available BODIPY (registered trademark) from the Cosmo Bio, Inc. Then, a fluorescence observation image of the unicellular red algae with stained fat and oil was acquired by using a fluorescence microscope. In addition, cultivation was similarly conducted as described above except that no promoter was added. Then, acquisition of a bright field image, staining of fat and oil, and acquisition of a fluorescence observation image were carried out also for the cultured unicellular red algae.
# Cyanidiosyzon merolae [2] = assay: Amount of starch in unicellular red algae after cultivation; format: cell-based; conditions: 2 mmol/L dimethyl 2-oxoglutarate, MA2 culture medium, suspension culture under light, 24 hours after addition, compared with control without promoter; average of three independent tests, FIG. 5
# Experimental: Unicellular red algae were cultured in suspension under a light condition and a promoter was added thereto. An MA2 culture medium was used as a culture medium. Cyanidiosyzon merolae were used as unicellular red algae. Dimethyl 2-oxoglutarate was used as a promoter. The promoter was added so that the final concentration of dimethyl 2-oxoglutarate would be 2 mmol/L. After the addition of the promoter, the cultivation was continued for 24 hours more. Thereafter, a bright field image was obtained for the cultured unicellular red algae using a microscope. In addition, the fat and oil of the unicellular red algae were stained with commercially available BODIPY (registered trademark) from the Cosmo Bio, Inc. Then, a fluorescence observation image of the unicellular red algae with stained fat and oil was acquired by using a fluorescence microscope. The same cultivation as in test 1 was performed, and the amount of starch contained in the unicellular red algae after the cultivation was determined. FIG. 5 is a graph showing an example of the influence of addition of a promoter on the amount of accumulation of starch. […] In FIG. 5, “control” represents the results obtained for the unicellular red algae cultured without adding a promoter to the culture medium. […]
compound,measurement,setting,value
"COC(=O)CCC(=O)C(=O)OC [promoter, dimethyl 2-oxoglutarate]",accumulation of fat and oil (fluorescence caused by BODIPY staining),Cyanidiosyzon merolae [1],greatly promoted
same,amount of accumulation of starch,Cyanidiosyzon merolae [2],greatly promoted
